For one data set, the target named is T1, hMCH-1R (Homo sapiens, UniProt Q99705).
T1 construct: expressed in transfected cells
The experiment in a line: MCH-1 receptor binding test (125I-MCH binding to hMCH-1R transfected cell membranes). As to conditions: membranes of hMCH-1R transfected CHO/Galpha16 cells. The protocol: After the incubation the reaction is filtered using a cell harvester through 0.5% PEI treated fiberglass filters (GF/B, Unifilter Packard). The membrane-bound radioactivity retained on the filter is then determined after the addition of scintillator substance (Packard Microscint 20) in a measuring device (TopCount of Packard). […] The analysis of the concentration binding curve is carried out on the assumption of one receptor binding site.

The test system of a further data set is rats. As to conditions: cited from earlier work.
The conditions of data set [1]: animals treated with the antagonist; cited from earlier work.

Structures are written as SMILES.

T1 sequence (Q99705 whole entry): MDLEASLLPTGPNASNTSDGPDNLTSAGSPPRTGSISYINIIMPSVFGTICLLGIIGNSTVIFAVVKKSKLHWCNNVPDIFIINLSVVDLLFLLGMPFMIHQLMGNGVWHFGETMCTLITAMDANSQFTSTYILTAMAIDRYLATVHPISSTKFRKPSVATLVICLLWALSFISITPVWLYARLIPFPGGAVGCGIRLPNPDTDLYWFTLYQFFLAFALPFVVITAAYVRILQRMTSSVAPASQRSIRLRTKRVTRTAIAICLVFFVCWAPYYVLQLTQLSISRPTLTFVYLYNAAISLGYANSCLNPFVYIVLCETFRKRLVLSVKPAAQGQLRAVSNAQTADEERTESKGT

Usually IC50 stands for the concentration at which inhibition is half-maximal. At hMCH-1R, `CCN(CC)CCOc1ccc(NC(=O)C#Cc2ccc(Cl)cc2Cl)c(Cl)c1` [Example 4.8, 3-(2,4-dichlorophenyl)propynoic acid-[2-chloro-4-(2-diethylaminoethoxy)phenyl]amide] gave an IC50 of 50 nM. What is called melting point is the temperature, or range, at which the solid turns liquid. Regarding `CN(C(=O)C#Cc1ccc(CN2CCCC2)cc1)c1ccc(-c2ccc(Cl)cc2)cc1` [Example 1.23, 3-(4-pyrrolidin-1-ylmethylphenyl)propynoic acid-(4′-chlorobiphenyl-4-yl)methylamide], the melting point lay in the range of 161 to 164 °C. For the same molecule, the IC50 at hMCH-1R worked out at 7.5 nM. `COc1ccc(-c2ccc(NC(=O)/C=C/c3ccc(CN4CCCC4)cc3)cc2)cc1` [Example 5.1, (E)-N-(4′-methoxybiphenyl-4-yl)-3-(4-pyrrolidin-1-ylmethylphenyl)acrylamide] registered a melting point of 199 to 200 °C. Also, the IC50 at hMCH-1R was 20 nM. With `COCC1=C(C(=O)OC)[C@H](c2ccc(F)c(F)c2)N(C(=O)NCCCN2CCC(c3cccc(NC(C)=O)c3)CC2)C(=O)N1` [SNAP-7941], the “effects in behavioral experiments” value in the data set on rats is “anxiolytic and antidepressant effects”. The “body weight in long term trials” value in data set [1] is given as “lose significant amounts of weight”.

The record behind these values is patent publication US7592373B2 (Boehringer Ingelheim International GmbH, priority 2003, dated 2009).
